The values below come from US7291601B1, “Arginine-rich anti-vascular endothelial growth factor peptides that inhibit growth and metastasis of human tumor cells by blocking angiogenesis” (Korea Greencross Corp., priority 1999, dated 2007).

Entries after “also recorded” stand apart in the source; their conditions may differ.

The target in one assay is T1, VEGF121 (Homo sapiens, UniProt P15692).
T1 construct: made in house; host or cells: E. coli BL21(DE3)pLysS, inclusion bodies
T1 sequence (P15692 27-147 isoform P15692-9): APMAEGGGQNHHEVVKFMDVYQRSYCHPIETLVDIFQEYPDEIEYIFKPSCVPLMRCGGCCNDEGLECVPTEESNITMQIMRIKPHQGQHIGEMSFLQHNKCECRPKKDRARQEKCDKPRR
Kind of assay: Inhibition of labeled VEGF121 binding to its receptors. To be noted: heparin-binding domain-deficient isoform, FIG. 9. The source says: (§1) In order to verify this postulation, Sequence 1 (RRKRRR) was examined for the common binding domain on VEGF because it inhibited the binding of VEGF to its receptors at the highest efficiency. First, appropriate primers were synthesized and used to amplify various cDNAs coding for VEGF165, VEGF121, VEFG8-121, VEGF109, and VEGF8-109 while a human liver cDNA library (Clontech) served as a template. After being inserted to plasmid pRSET A (Invitrogen), the cDNAs were sequenced. The resulting five pRSET A vectors, each having one of the five cDNAs, were introduced into an expression strain (BL21(DE3)pLysS) containing T7 RNA polymerase. […] The purified VEGFs were quantified by use of a protein assay reagent (Bio-Rad) and all found to bind to VEGF receptors and exert growth hormone activity on HUVEC. […] For use, each labeled protein was quantified by ELISA (enzyme-linked immunosorbent assay) using a mouse monoclonal anti-VEGF antibody (R&D systems).
(§2) Each peptide was examined for antagonistic activity against VEGF in the same manner as in Example 2. Referring to FIG. 9, the radioactivity measured from ^125I-labeled VEGF associated with fixed Sequence 1 (RRKRRR) (SEQ ID NO: 1) is plotted in the absence of competitors and in the presence of competitors for various VEGF isomers. […]

The target of the next assay is T2, VEGF109 (Homo sapiens, UniProt P15692).
T2 construct: made in house; host or cells: E. coli BL21(DE3)pLysS, inclusion bodies
T2 sequence (P15692 27-135 isoform P15692-4): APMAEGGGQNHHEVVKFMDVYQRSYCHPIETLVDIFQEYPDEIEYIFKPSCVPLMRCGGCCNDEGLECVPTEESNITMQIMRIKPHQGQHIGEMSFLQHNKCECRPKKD
Kind of assay: Inhibition of labeled VEGF109 binding to its receptors. As to conditions: FIG. 9.
Source text: as §1, §2

Another assay relates to rabbit corneal domes. In words: Rabbit corneal dome angiogenesis induced by VEGF. The format is in vivo. As to conditions: VEGF 10 ng with 1 μg peptide, 16 days after operation; listed as Sequence 1. The protocol: To confirm the test results obtained from egg CAM, an experiment was performed using rabbit corneal domes for in vivo angiogenesis testing. New Zealand male rabbits weighing 3 kg (SLC, Japan) were subjected to intramuscular ketamine anesthesia (44 mg/kg), followed by dissecting the corneal domes to a length of 3 mm by use of an operating knife (Bard-Parker—#11). […] 16 days after the operation, angiogenesis was obviously observed and photographs were taken of blood vessels newly formed in the corneal dome (Nikon, FS-2, Japan).

Assay [1] concerns HM7 (human colon carcinoma cell line). Kind of assay: Liver metastasis of HM7 cells transplanted into the spleen of nude mice. Format: in vivo. As to conditions: control group PBS only. The text has this: In order to conduct an experiment concerning the metastasis of cancer cells to the liver, cancerous cells were transplanted into the spleen. In this regard, after being anesthetized with diethyl ether, 4-week-old male mice (athymic nude mice, BALB/c/nu/nu, Charles River, Japan) underwent flank incision. […] Four weeks after the injection, the liver was excised from each mouse and measured for weight and the size and number of metastatic nodules formed. Each test group was composed of 6-7 mice. In a student's t-test, a p value less than 0.05 was regarded as being statistically significant. In the test using tetrazolium dye (cell titer 96 Non-radioactive Proliferation Assay Kit, Promega), each peptide was evaluated to have no influence on the growth of the cancer cells (5×10^3 cells/well), so that the possibility that the toxicity of the peptide themselves might inhibit the growth and metastasis of cancer cells could be excluded.

Consider “H-RRKRRR-NH2 [compound 8, NH2-Arg-Arg-Lys-Arg-Arg-Arg-CONH2]”, for which, at VEGF121, the “inhibition of binding of labeled VEGF121 to its receptors” value is recorded as “inhibited”. In addition, the “inhibition of binding of VEGF109 to its receptors” value at VEGF109 was “not inhibited”. The “VEGF-induced angiogenesis in the rabbit corneal dome” value in the assay with rabbit corneal domes was “completely inhibited; also recorded: anti-angiogenic effect”. The “weight of the liver, % of the control group” value in assay [1] worked out at 33%. Also, in assay [1] (liver), the “number of metastatic nodules, % of the control group” value came out at 16%.
